Reference: patent US20230391817A1, “5ALPHA-HYDROXY-6BETA-[2-(1-H-IMIDAZOL-4-YL)-ETHYLAMINO]-CHOLESTAN-3BETA-OL ANALOGUES AND PHARMACEUTICAL COMPOSITIONS COMPRISING SAME FOR USE IN THE TREATMENT OF CANCER” (priority 2020, published 2023)
Read-outs that look alike come from different tables or passages of the source.

What was measured:
4T1 tumors = assay: Tumor growth and survival in vivo, subcutaneous 4T1 tumors in Balb/c mice; conditions: 40 mg/kg, gavage, daily; for Inhibition of tumor growth at 7 days: Balb/c mice with 4T1 tumors
Procedure: All the animal procedures were conducted according to our institutional guidelines after approval by the ethics committee. The 4T1 cells were cultured as previously, dissociated in trypsin, washed twice with cold PBS and resuspended in 1.5 million/ml PBS. 4T1 tumors were obtained by subcutaneous transplantation of 0.150 million cells in 100 μL into the flank of female Balb/c mice (9 weeks old, […]). When the tumors reached a volume of 50-100 mm^3, the mice were gavaged with 40 mg/kg of DX101 or 40 mg/kg of DX111 or the control vehicle (water). Treatment was performed daily until the end of the experiment (tumor volume >1000 mm^3). Tumor volume was determined daily using a caliper and calculated using the formula: ½×(Length*Width^2). The percentage of tumor growth inhibition was determined using the following formula: 100×(1-(Tumor volume, day 7/tumor volume day 0)DX111)/(1-(Tumor volume, day 7/tumor volume day 0)vehicle).
The Kaplan-Meier method was used to compare animal survival.

[1] = tested on: BT-474 human mammary tumor cells; assay: Cell viability of BT-474 cells, LDH; format: cell-based; conditions: BT-474, LDH, 48 h; for Mean LogIC50 (±SEM): log of IC50 in μM; for IC50: Homo sapiens
Procedure: (§1) For the second method, the percentage of viability is determined by assaying the activity of the enzyme LDH (lactate dehydrogenase) in cell supernatants using the non radioactive cytotoxicity assay kit (Promega). LDH is an enzyme released in the supernatant of dead cells. The higher the LDH activity in the supernatant, the greater the cell death. In this enzyme assay, the LDH released converts a violet tetrazolium salt to a red colored formazan, absorbing at 490 nm. The intensity of the red color is proportional to the number of dead cells. After 48 h of treatment, the supernatants are transferred to a new 96-well plate and incubated for 30 minutes in the presence of substrate mix at room temperature. The reaction is stopped with stop solution reagent and the absorbance is determined at 490 nm. The percentage of cell death is determined here using a 100% maximum LDH activity control (made from untreated cells incubated in the presence of lysis solution for 45 minutes at 37° C. just prior to addition of the substrate mix), and the cell viability in each well is then deduced from this percentage. The IC50 is then determined as explained in the preceding paragraph.
Cell viability tests were also performed on BT-474 human mammary tumor cells (characterized as triple positive HER2+, ER+, PR+). The BT-474 cells were in a cell culture medium identical to the previous example and seeded in 24-well plates at 70 000 cells per well for cell viability determination using trypan blue, or in 96-well plates at 13 000 cells per well for cell viability determination using the MTT or LDH assay. After 96 hours (h) of culture under normal conditions, i.e. in an incubator at 37° C. with […], BT-474 cells were treated for 48 h with DX101, DX103, DX105, DX111, DX123 and DX127 at 100 nM, 1 μM, 2.5 μM and 10 μM. A control is also performed using the protocol described previously without treatment with DX101, DX103, DX105, DX111, DX123 and DX127.
After a 10-minute trypsin digestion at 37° C., the cell survival was also quantified by means of a trypan blue test with automatic counting using the Biorad TC20 machine (TC20™ Automated Cell Counter). The trypan blue test is based on the integrity of cell membranes, which is disrupted in the dead cells. Trypan blue stains dead cells blue. The Biorad TC20 cell counter counts the proportion of blue and non-blue cells, and reports the percentage of cells. The percentage of viability is then determined in each well relative to the untreated cells and the IC50 is determined as explained in the preceding example. Also, the percentage viability of the BT-474 cells was determined using the MTT and LDH assay, performed as described in the preceding example.

[2] = tested on: murine 4T1 mammary tumor cells; assay: Cell viability of 4T1 cells, LDH; format: cell-based; conditions: Mus musculus, 4T1, LDH, 48 h
Procedure: Cell viability tests were performed on murine 4T1 mammary tumor cells characterized as triple negative (HER2-, ER-, PR-).
For this experiment, a cell culture medium was prepared. The culture medium consisted of Dulbecco's Modified Eagle Medium (DMEM, sold by Westburg as LO BE12-604F), comprising 4.5 g/L glucose with L-glutamine, to which 10% fetal calf serum (FCS) and 50 U/ml penicillin/streptomycin are added. The 4T1 cells were introduced into this culture medium.
96-well plates were seeded with 2000 4T1 cells per well. After 72 hours (h) of culture under normal condition, i.e. in an incubator at 37° C. at […], the 4T1 cells were treated for 48 h with DX101, DX103, DX111, DX123, DX125, DX127 and DX129 at 100 nM, 1 μM, 2.5 μM and 10 μM. A control condition (CTL) is also performed in parallel using the previously described protocol without treatment with the molecules DX101, DX103, DX111, DX123, DX125, DX127 or DX129.
as §1

[3] = tested on: Neuro2a (murine neuroblastoma) cells; assay: Cytotoxicity on Neuro2a cells, trypan blue test; format: cell-based; conditions: 48 h
Procedure: For this experiment, a cell culture medium was prepared. The culture medium consisted of Dulbecco's Modified Eagle Medium (DMEM, sold by Westburg under the reference LO BE12-604F), comprising 4.5 g/L glucose with L-glutamine, to which 10% fetal calf serum (FCS) is added. Neuro2a (murine neuroblastoma) cells are introduced into this culture medium.
24-well dishes were seeded with 10 000 Neuro2a cells per well. After 72 hours (h) of culture under normal conditions, i.e., in an incubator at 37° C. with 5% CO2, the Neuro2a cells were treated for 48 h with 3β-fluoro-5α-hydroxy-6β-[2-(1H-imidazol-4-yl)ethylamino]-cholestane and 5α-hydroxy-6β-[2-(1H-imidazol-4-yl)ethylamino]cholestan-3β-ol at 100 nM, 1 μM and 10 μM. A control (CTL) is also performed using the previously described protocol without treatment with […]-5α-hydroxy-6β-[2-(1H-imidazol-4-yl)ethylamino]-cholestane and 5α-hydroxy-6β-[2-(1H-imidazol-4-yl)ethylamino]cholestan-3β-ol. The cell survival was quantified by means of a trypan blue test with automatic counting using the Biorad TC20 machine (TC20™ Automated Cell Counter). The trypan blue test is based on the integrity of cell membranes, which is disrupted in the dead cells. Trypan blue stains dead cells blue. The Biorad TC20 cell counter counts the proportion of blue and non-blue cells, and reports the percentage of cells. The results are represented in FIG. 1.

[4] = log of IC50 in μM, read-out: Mean LogIC50 (±SEM) (converted)

Compound | median survival (4T1 tumors) [days] | survival after 15 days of treatment (4T1 tumors) [%] | Inhibition of tumor growth at 7 days (4T1 tumors) [%] | effect on tumor growth reduction compared with DX101 (4T1 tumors; p<0.01) | Mean LogIC50 (±SEM) [1] | IC50 [1] [µM] | IC50 [2, 4] [µM] | IC50 ([2]; read-out: IC50) [µM] | percentage of cell survival relative to the control group ([3]; 100 nM) | percentage of cell survival relative to the control group ([3]; 1 μM) [%] | percentage of cell survival relative to the control group ([3]; 10 μM) [%]
CC(C)CCC[C@@H](C)[C@H]1CC[C@H]2[C@@H]3C[C@@H](NCCc4c[nH]cn4)[C@@]4(O)C[C@@H](F)CC[C@]4(C)[C@H]3CC[C@]12C [DX111, 3β-fluoro-5α-hydroxy-6β-[2-(1H-imidazol-4-yl)ethylamino]cholestane] | 10 | 25 | 67 | superior effect | 0.89 ± 0.04 | 7.82 | 1.86 | 1.88 | unchanged | 75 | 30
CC(C)CCC[C@@H](C)[C@H]1CC[C@H]2[C@@H]3C[C@@H](NCCc4c[nH]cn4)[C@@]4(O)C[C@@H](O)CC[C@]4(C)[C@H]3CC[C@]12C [DX101, 5α-hydroxy-6β-[2-(1H-imidazol-4-yl)ethylamino]cholestan-3β-ol, reference compound] | 9 | 0 | 48 |  | 1.03 ± 0.06 | 10.6 | 3.24 | 3.24 |  |  | 
